Measured values from patent US9233961B2, “Compounds and compositions for the treatment of parasitic diseases” (Novartis AG, priority 2013, dated 2016).

Legend:
[1] = tested on: Leishmania donovani axenic amastigote parasites; assay: Leishmania donovani axenic amastigote proliferation assay; format: cell-based; conditions: axenic amastigotes in vitro, read-out: L. donovani amastigotes EC50
Description: Leishmania Donovani Axenic Amastigote Proliferation Assay
Leishmania donovani axenic amastigote parasites are grown at 37° C., 5% CO2 in media made of RPMI 1640, 4 mM L-glutamine, 20% heat inactivated FBS, 100 units/ml of penicillin and 100 μg/ml of streptomycin, 23 μM Folic Acid, 100 μM Adenosine, 22 mM D-glucose, 25 mM MES. The pH of media is adjusted to 5.5 at 37° C. using HCl. 20 μL of media is first dispensed into 384 well plates and 100 nL of the compounds of invention in DMSO are added to the plate wells. At the same time control compounds and DMSO are added to plates to serve as the positive and negative controls, respectively. 40 μL of parasite culture (9600 parasites) are then added to the plate wells. The plates are then placed into incubators. After 2 day incubation, 20 μL of Cell TiterGlo (Promega) is added to the plate wells. The luminescence signal of each well is measured using the Envision reader (Perkin Elmer). The percentage inhibition of 50%, EC50, is calculated for each of the compounds.

[2] = tested on: L. donovani HU3 strain in mouse peritoneal macrophages; assay: Assay for proliferation of Leishmania parasites in mouse peritoneal macrophages; format: cell-based, Leishmania donovani; conditions: Leishmania donovani, Peritoneal macrophage, read-out: L. donavani Macrophage EC50
Text: Assay for Proliferation of Leishmania Parasites
The activity of a compound according to the present invention for inhibition of parasitemai can be assessed by the parasite proliferation assay. The assay measures the increase in the parasite number in the assayed plate well using a DNA intercalating dye, SYBR Green I® dye (INVITROGEN) to stain Leishmania cell nuclei. It is understood that the assays illustrate the invention without in any way limiting the scope of the invention.
L. donovani HU3 strain is propagated by infecting BALB/c mice through tail vein injection with 10^7 Leishmania parasites. Infected mice are allowed to develop infection during 9-11 weeks post-infection. During this time, the parasites accumulate in the infected mouse spleens to large numbers, and the infected mice serve as the source of parasites for the in vitro measurement of compound efficacies. To assay a compound for anti-leishmanial activity, peritoneal macrophages isolated from non-infected BALB/c mice are seeded into 384-well plates at density 2×10^4 macrophages per well in […] of medium (RPMI 1640, 10% […], 10 mM HEPES, 1 mM sodium pyruvate, 1% Pen/Strep). Subsequently, the seeded plates are placed into an incubator set to maintain 37° C. temperature and atmosphere with 5% CO2. The next day, Leishmania parasites are isolated from the spleens of mice infected for 9-11 weeks and 4×10^5 isolated parasites in […] of the above media are added to each plate well. Plates are then returned into incubators and infection is allowed to proceed for 24 hours. After the infection of macrophages is completed, […] of compounds of the invention in the above medium, which also contains 5% DMSO, are added to plate wells containing infected macrophages. At the same time control compounds (miltefosine and amphotericin B) and DMSO are added to plates to serve as the positive and negative controls, respectively. After the compound addition, the plates are returned into incubator and cells infected with parasites are cultured for 5 days. At the end of cultivation, […] of 8% paraformaldehyde is added to plate wells and incubated for 15 min at room temperature. Following the incubation, the paraformaldehyde from plate wells is aspirated, and […] of PBS containing 0.2% Triton X-100 is added to wells. After 15 min incubation, the solution is aspirated from wells again, and replaced with SybrGreen Dye solution in PBS (1:125,000 dilution). Infected cells are imaged with Evotec Opera high-content microscope, and the number of parasites in well is determined by counting parasite nuclei visualized by staining with SybrGreen dye. The percentage inhibition of 50%, EC50, is calculated for each compound.
The inhibitory efficacy of the compounds of the invention in delaying the proliferation of L. donovani in mouse peritoneal macrophages is provided in Table I, infra.

Compound	EC50 [1]	EC50 [2]
O=C(Nc1ccc(Cl)c(-c2nc3ncc(-c4ccc(N5CCCC5)cc4)cc3[nH]2)c1)c1ccco1 [Compound 68]	2.85 µM	4.9 µM
CN(C)CCn1c(-c2cc(NC(=O)N3CCCC3)ccc2Cl)nc2ncc(Br)cc21 [Compound 387]	> 25 µM	> 50 µM
CC(C)OC(=O)Nc1ccc(Cl)c(-c2nc3ncc(-c4ccccc4NC(=O)CN)cc3[nH]2)c1 [Compound 340]	11.7 µM	9.8 µM
O=C(Nc1ccc(Cl)c(-c2nc3ncc(-c4ccc(OC(F)(F)F)cc4)cc3[nH]2)c1)c1ccco1 [Compound 25]	5.6 µM	9.5 µM
CC(C)(C)C(=O)Nc1ccc(F)c(-c2nc3ncc(Cl)cc3[nH]2)c1 [Compound 358]	> 25 µM	> 50 µM
Cc1cnc2nc(-c3cc(NC(=O)C4CCO4)ccc3Cl)[nH]c2c1 (centres unmarked) [Compound 103]	> 25 µM	> 50 µM
O=C(Nc1ccc(Cl)c(-c2nc3ncc(-c4ccc(OCCN5CCOCC5)cc4)cc3[nH]2)c1)N1CCCC1 [Compound 299]	0.73 µM	0.208 µM
C[Si](C)(C)CCOCn1cnc(-c2cnc3nc(-c4cc(NC(=O)N5CCCC5)ccc4Cl)[nH]c3c2)c1 [Compound 306]	0.207 µM	0.181 µM
NS(=O)(=O)c1ccc(-c2cnc3nc(-c4cc(NC(=O)c5ccco5)ccc4Cl)[nH]c3c2)cc1 [Compound 66]	4.6 µM	> 39.1 µM
CN1CCN(c2ccc(-c3cnc4nc(-c5cc(NC(=O)c6ccco6)ccc5Cl)[nH]c4c3)cc2)CC1 [Compound 22]	19 µM	4.6 µM
CN(C)Cc1ccc(-c2cnc3nc(-c4cc(NC(=O)c5ccco5)ccc4Cl)[nH]c3c2)cc1 [Compound 15]	6.1 µM	0.72 µM
CNc1ccc(-c2cnc3nc(-c4cc(NC(=O)c5ccc(CN(C)C)o5)ccc4Cl)[nH]c3c2)cc1 [Compound 347]	> 25 µM	7.2 µM
CC(C)(CN)c1ccc(-c2cnc3nc(-c4cc(NC(=O)N5CCCC5)ccc4Cl)[nH]c3c2)cc1 [Compound 304]	9.6 µM	4.7 µM
C[C@@H](CO)NCc1cnc2nc(-c3cc(NC(=O)c4ccco4)ccc3Cl)[nH]c2c1 [Compound 38]	> 25 µM	> 50 µM
CC(C)OC(=O)Nc1ccc(Cl)c(-c2nc3ncc(-c4ccccc4NC(=O)OC(C)C)cc3[nH]2)c1 [Compound 335]	0.6 µM	1.09 µM
CCOC(=O)Nc1ccc(Cl)c(-c2nc3ncc(C#N)cc3[nH]2)c1 [Compound 289]	4.2 µM	8.1 µM
O=C(Nc1ccc(Cl)c(-c2nc3ncc(C(F)(F)F)cc3[nH]2)c1)c1cncc(F)c1 [Compound 283]	4 µM	11.4 µM
O=C(Nc1ccc(Cl)c(-c2nc3ncc(Br)cc3[nH]2)c1)c1ccc(F)o1 [Compound 373]	0.55 µM	2.15 µM
O=C(CCN1CCCCC1)Nc1ccc(F)c(-c2nc3ncc(Cl)cc3[nH]2)c1 [Compound 359]	> 25 µM	> 35.3 µM
O=C(Nc1ccc(Cl)c(-c2nc3ncc(-c4ccncc4)cc3[nH]2)c1)c1ccco1 [Compound 10]	0.89 µM	1.12 µM
Cc1cc(COc2ccc(-c3cnc4nc(-c5cc(NC(=O)c6ccco6)ccc5Cl)[nH]c4c3)cc2)no1 [Compound 44]	0.283 µM	0.82 µM
CC(C)OC(=O)Nc1ccc(Cl)c(-c2nc3ncc(C#N)cc3n2C(=O)OC(C)C)c1 [Compound 288]	1.59 µM	0.13 µM
CC(C)OC(=O)Nc1ccccc1-c1cnc2nc(-c3cc(NC(=O)c4ccco4)ccc3Cl)[nH]c2c1 [Compound 37]	0.46 µM	0.55 µM

Compound	EC50 [1]	EC50 [2]
Cc1cc(-c2cnc3nc(-c4cc(NC(=O)c5ccco5)ccc4Cl)[nH]c3c2)cc(C)n1 [Compound 39]	0.57 µM	9.6 µM
O=C(Nc1ccc(C(F)(F)F)cc1)Nc1ccc(F)c(-c2nc3ncc(-c4ccc(CCN5CCOCC5)cc4)cc3o2)c1 [Example 389, 3-[4-Fluoro-3-(6-{4-[2-(morpholin-4-yl)ethyl]phenyl}-[3]oxazolo[4,5-b]pyridin-2-yl)phenyl]-1-[4-(trifluoromethyl)phenyl]urea]	11.6 µM	11.4 µM
Cc1cnc2nc(-c3cc(NC(=O)c4ccnc([S+](C)[O-])n4)ccc3Cl)[nH]c2c1 (centres unmarked) [Compound 154]	> 24.1 µM	> 50 µM
Cc1cnc2nc(-c3cc(NC(=O)c4ccc(C(F)(F)F)cc4)ccc3Cl)[nH]c2c1 [Compound 153]	> 25 µM	14.9 µM
C=Cc1cnc2nc(-c3cc(NC(=O)c4ccco4)ccc3Cl)[nH]c2c1 [Example 74, N-(4-chloro-3-{6-ethenyl-1H-imidazo[4,5-b]pyridin-2-yl}phenyl)furan-2-carboxamide]	0.45 µM	3.09 µM
CC(=O)Nc1ccc(-c2cnc3nc(-c4cc(NC(=O)c5ccco5)ccc4Cl)[nH]c3c2)cc1 [Compound 18]	0.3 µM	1.48 µM
CCc1noc(C(=O)Nc2ccc(F)c(-c3nc4ncc(Br)cc4o3)c2)n1 [Compound 405]	> 25 µM	> 50 µM
COCCOc1ccc(-c2cnc3nc(-c4cc(NC(=O)c5ccco5)ccc4Cl)[nH]c3c2)cc1 [Compound 60]	0.8 µM	3.5 µM
O=C(Nc1ccc(C(F)(F)F)cc1)Nc1ccc(F)c(-c2nc3ncc(-c4ccc(NCCN5CCOCC5)nc4)cc3o2)c1 [Compound 391]	> 25 µM	> 12.3 µM
CC(C)(C)c1nnc(C(=O)Nc2ccc(F)c(-c3nc4ncc(Br)cc4o3)c2)o1 [Compound 407]	> 25 µM	> 4.2 µM
CNC(=O)Nc1ccc(-c2cnc3nc(-c4cc(NC(=O)c5ccco5)ccc4Cl)[nH]c3c2)cc1 [Compound 57]	1.83 µM	> 50 µM
Cc1c[nH]nc1-c1cnc2nc(-c3cc(NC(=O)c4ccco4)ccc3Cl)[nH]c2c1 [Compound 73]	0.82 µM	8.2 µM
N#Cc1ccc(C(=O)Nc2ccc(Cl)c(-c3nc4ncc(C(F)(F)F)cc4[nH]3)c2)o1 [Compound 281]	1.98 µM	6.3 µM
Cc1cnc2nc(-c3cc(NC(=O)Nc4ccc(C(F)(F)F)cc4)ccc3Cl)[nH]c2c1 [Compound 248]	> 25 µM	23.1 µM
Cc1cnc2nc(-c3cc(NC(=O)CCCN(C)C)ccc3F)[nH]c2c1 [Compound 275]	> 25 µM	> 50 µM
CC(C)c1nnc(C(=O)Nc2ccc(F)c(-c3nc4ncc(Br)cc4o3)c2)o1 [Compound 406]	> 25 µM	> 50 µM
CN(C)Cc1ccc(C(=O)Nc2ccc(Cl)c(-c3nc4ncc(C(F)(F)F)cc4[nH]3)c2)o1 [Compound 277]	> 25 µM	15.2 µM
Cc1ncoc1C(=O)Nc1ccc(F)c(-c2nc3ncc(Br)cc3o2)c1 [Compound 409]	7.5 µM	> 50 µM
CN(C)c1ccc(-c2cnc3nc(-c4cc(NC(=O)Nc5ccc(C(F)(F)F)cc5)ccc4F)oc3c2)cc1 [Compound 390]	12.6 µM	18.2 µM
CC(C)OC(=O)Nc1ccc(-c2cnc3nc(-c4cc(NC(=O)OC(C)C)ccc4Cl)[nH]c3c2)cc1 [Compound 337]	0.119 µM	0.295 µM
Cc1cnc2nc(-c3cc(NC(=O)c4cncc(Cl)n4)ccc3Cl)[nH]c2c1 [Compound 127]	1.2 µM	4.8 µM
Cc1cc2[nH]c(-c3cc(NC(=O)c4ccco4)ccc3Cl)nc2nc1C [Compound 5]	> 25 µM	49.4 µM
Nc1ccc(-c2cnc3nc(-c4cc(NC(=O)c5ccco5)ccc4Cl)[nH]c3c2)cc1 [Compound 12]	0.258 µM	0.4 µM
